Reference: article PMC8899820, “Pharmacokinetics, Tissue Distribution, and Excretion Characteristics of a Radix Polygoni Multiflori Extract in Rats” (Frontiers in Pharmacology, 2022)
Like-named read-outs stand apart in the source and are kept apart here.

Legend:
[1] = RPM extract 36 g/kg p.o., rat plasma, Mean ± SD, n = 6; ref Cheng et al., 2020; cited from earlier work
[2] = Excretion into urine and feces and mass balance after oral RPM extract; conditions: for dose excreted: Sprague-Dawley, rat, po; for cumulative excretion into feces: rat feces; for cumulative excretion into urine: rat urine
Experimental: (§1) For the excretion study, the rats were housed singly in metabolic cages with urine collection tubes kept at 4 °C during sample collection. Urine and fecal samples were collected at time intervals of 0–4, 4–8, 8–24, 24–32, and 32–48 h after a single dose of RPM extract at 18 g/kg and then weighed. Another six rats were anesthetized with pentobarbital, fixed in the supine position and subjected to bile duct drainage surgery, and the abdominal wound was sutured. Blank bile samples were collected before the administration of RPM. The rats were weighed, and the state of the rats was observed. Subsequently, they were orally administered 18 g/kg RPM extract. The bile samples were collected at time intervals of 0–1, 1–2, 2–4, 4–6, 6–8, 8–24, 24–32 and 32–48 h. The urine, feces, and bile samples were stored at −70°C until use.
(§2) Samples were prepared using the protein precipitation process. […] After vortex shaking for 5 min and centrifugation at 14,000 g for 5 min, 150 μL of the organic layer was transferred to a clean tube and evaporated to dryness at 25°C under a stream of nitrogen. The residue was reconstituted in 50 μL of the initial mobile phase and subjected to another round of centrifugation at 14,000 g for 5 min, and 5 μL of the supernatant was injected for LC–MS/MS analysis. […] Urine and bile samples were centrifuged at 4°C and 12,000 × g for 15 min. Fecal samples were homogenized in 0.9% saline and then centrifuged at 4°C and 12,000 × g for 15 min to gather the fecal homogenates. Tissue homogenate, urine, bile and fecal samples were subjected to a similar process as the rat plasma samples.
(§3) For the excretion study, 6 rats were placed in metabolic cage after orally administered with 18 g/kg RPM extract, and urine, feces samples were collected at time intervals of 0–4, 4–8, 8–24, 24–32, 32–48, 48–60, and 60–72 h. Another 6 rats were anesthetized with pentobarbital, fixed in the supine position and performed bile duct drainage operation, and the abdominal wound was sutured. […] Subsequently, they were orally administered with 18 g/kg RPM extract. The bile samples were collected at time intervals of 0–1, 1–2, 2–4, 4–6, 6–8, 8–24, 24–32 and 32–48 h. The urine, feces, and bile samples were stored at −70 °C until use.

[3] = Biliary excretion in bile duct drained rats after oral RPM extract; conditions: single p.o. RPM extract 18 g/kg, rat bile
Experimental: as §1, §2, §3

[4] = Dose-exposure relationship (power function model with confidence interval method)
Experimental: (§4) The pharmacokinetic parameters, including the area under the plasma concentration-time curve from time zero to time t (AUC0-t) to time infinity (AUC0-∞), the time to reach the maximum plasma concentration (T max), the elimination half-time (t 1/2), and the maximum plasma concentration (C max), were calculated using the pharmacokinetic software Phoenix® WinNonlin®, version 7.0 (Scientific Consulting Inc., Apex, NC, United States). Data are expressed as the mean ± standard deviation (SD) for each group. The dose-exposure relationship was evaluated by the power function model combined with the confidence interval method ([Smith et al., 2000]; [Sethuraman et al., 2007]; [Hummel et al., 2009]). First, the administration dose, AUC0-∞ and C max were logarithmically transformed, and then a linear regression was performed to obtain the curve correlation coefficient (R^2), slope and 90% confidence interval (90% CI).

[5] = cited from earlier work
[6] = Tissue distribution of RPM constituents after oral RPM extract; conditions: for AUC(0-t): Sprague-Dawley, rat, po, 18 g/kg
Experimental: For the tissue distribution study, 18 rats were randomly divided into three groups (n = 6, each) and orally administered 18 g/kg RPM extract. The rats under isoflurane anesthesia were sacrificed by bleeding from the abdominal aorta at 5, 15, and 60 min (six rats per time point) after gavage with 18 g/kg RPM extract. Subsequently, the heart, liver, spleen, lung, kidney, brain, stomach, small intestine, bladder, and gonads (testes of male rats, and uterus and ovaries of female rats) were immediately collected. An accurately weighed amount of fresh tissue sample (0.25 g) was individually homogenized with normal saline (1 ml) and transferred (50 μL) as a tissue homogenate to 1.5 ml centrifuge tubes for use as the tissue samples. All tissue samples were stored at −70°C until analysis.
Samples were prepared using the protein precipitation process. […] The tissue samples were homogenized in four parts of ice-cold 0.9% saline solution and then centrifuged at 4°C and 12,000 × g for 10 min to obtain tissue homogenates. […] Tissue homogenate, urine, bile and fecal samples were subjected to a similar process as the rat plasma samples.
For the tissue distribution study, 18 rats were randomly divided into three groups (n=6, each), and orally administered with 18 g/kg RPM extract. The rats were sacrificed at 5, 15, 60 min after orally administering RPM. Subsequently, the heart, liver, spleen, lung, kidney, brain, stomach, small intestine, bladder, gonad (testes of male rats, uterus and ovaries of female rats) were immediately collected. An accurately weighed amount of fresh tissue sample (0.25 g) was individually homogenized with normal saline (1 mL) and transferred (50 μL) as a tissue homogenate to 1.5 mL centrifuge tubes for use as the tissue samples.

[7] = Plasma pharmacokinetics of RPM constituents after oral RPM extract; conditions: for time at which C max was exhibited: RPM extract p.o.; for AUC(0-inf) / AUC(0-t) / Cmax / MRT inf / Tmax / half-life: Sprague-Dawley, rat, plasma, po
Text: For the pharmacokinetic (PK) study, three groups (n = 6 each) of rats were orally administered RPM extract (6, 18, and 36 g/kg). In the plasma pharmacokinetics experiment, doses were 6, 18, and 36 g/kg for the single administration group and 18 g/kg for the continuous administration group. The doses were set at a subtoxic level ([Zhang et al., 2013]; [Wang et al., 2015]) to investigate the pharmacokinetic profiles of the constituents of RPM (36 g/kg group) and were approximately 60 times the upper dose (6 g/day) for humans recommended by the 2020 edition of Chinese Pharmacopoeia ([Chinese Pharmacopoeia Commission, 2020]), which was converted to a dose for rats based on body surface area conversion ([Reagan-Shaw et al., 2008]). In addition, the low and medium doses decreased in a certain proportion. Serial blood samples (∼120 μL; before dosing and at 5, 15, and 30 min, and 1, 2, 4, 6, 8, 12, and 24 h after administration) were collected in heparinized tubes from the orbital sinus under light isoflurane. The blood samples were centrifuged at 12000 g for 2 min, and the plasma fractions were decanted and frozen at −70°C until analysis.
Samples were prepared using the protein precipitation process. Rat plasma (50 μL) spiked with 10 μL of IS (puerarin 100 ng/ml) was extracted with 150 μL acetonitrile. After vortex shaking for 5 min and centrifugation at 14,000 g for 5 min, 150 μL of the organic layer was transferred to a clean tube and evaporated to dryness at 25°C under a stream of nitrogen. The residue was reconstituted in 50 μL of the initial mobile phase and subjected to another round of centrifugation at 14,000 g for 5 min, and 5 μL of the supernatant was injected for LC–MS/MS analysis.
The analysis was performed on an AB Sciex API 5500 Q Trap mass spectrometer (Toronto, Canada), interfaced with a Waters Acquity UPLC separation module.
as §4

[8] = set-up: method as in Wang P. et al., 2011; conditions: ref Wang P. et al., 2011, cited from earlier work
[9] = feces, Recovery in feces (%), mass balance, 18 g/kg RPM extract p.o., feces collected 0–72 h
[10] = urine and feces, Recovery in urine and feces (%), mass balance, 18 g/kg RPM extract p.o., urine plus feces, 0–72 h
[11] = urine, Recovery in urine (%), mass balance, 18 g/kg RPM extract p.o., urine collected 0–72 h
[12] = single p.o. RPM extract 18 g/kg
[13] = AUC0-∞ vs p.o. dose of RPM extract, critical interval 0.88–1.12
[14] = C max vs p.o. dose of RPM extract, critical interval 0.80–1.20
[15] = log AUC0-∞ vs log p.o. dose of RPM extract, critical interval 0.88–1.12
[16] = log C max vs log p.o. dose of RPM extract, critical interval 0.80–1.20
[17] = both, bladder, AUC0-t in bladder, rat tissue: bladder, 18 g/kg RPM extract p.o., tissues collected at 5, 15, 60 min
[18] = both, brain, AUC0-t in brain, rat tissue: brain, 18 g/kg RPM extract p.o., tissues collected at 5, 15, 60 min
[19] = both, heart, AUC0-t in heart, rat tissue: heart, 18 g/kg RPM extract p.o., tissues collected at 5, 15, 60 min
[20] = both, intestine, AUC0-t in intestine, rat tissue: intestine, 18 g/kg RPM extract p.o., tissues collected at 5, 15, 60 min
[21] = both, kidney, AUC0-t in kidney, rat tissue: kidney, 18 g/kg RPM extract p.o., tissues collected at 5, 15, 60 min
[22] = both, liver, AUC0-t in liver, rat tissue: liver, 18 g/kg RPM extract p.o., tissues collected at 5, 15, 60 min
[23] = both, lung, AUC0-t in lung, rat tissue: lung, 18 g/kg RPM extract p.o., tissues collected at 5, 15, 60 min
[24] = both, spleen, AUC0-t in spleen, rat tissue: spleen, 18 g/kg RPM extract p.o., tissues collected at 5, 15, 60 min
[25] = both, stomach, AUC0-t in stomach, rat tissue: stomach, 18 g/kg RPM extract p.o., tissues collected at 5, 15, 60 min
[26] = female, ovary, AUC0-t in ovary, rat tissue: ovary, 18 g/kg RPM extract p.o., tissues collected at 5, 15, 60 min
[27] = female, uterus, AUC0-t in uterus, rat tissue: uterus, 18 g/kg RPM extract p.o., tissues collected at 5, 15, 60 min
[28] = male, testis, AUC0-t in testis, rat tissue: testis, 18 g/kg RPM extract p.o., tissues collected at 5, 15, 60 min

For `OC[C@H]1O[C@@H](Oc2c(O)cc(O)cc2/C=C/c2ccc(O)cc2)[C@H](O)[C@@H](O)[C@@H]1O` [TSG, 2,3,5,4′-teterahydroxystilbene-2-O-β-D-glucoside], the “AUC0-∞” value [1] is given as 4,610 ± 1,430 nmol·h/L, the AUC(0-t) [1] is given as 4,460 ± 1,360 nmol·h/L and the Cmax [1] is given as 4290 nM. For the same compound, the dose excreted [2, 9] was 24.6%, the dose excreted [2, 10] was 38.9% and the dose excreted [2, 11] was 14.3%. The “cumulative excretion into feces” value [2, 12] was 2778 ± 349 nmol, the “cumulative excretion into urine” value [2, 12] was 1619 ± 208 nmol and the “cumulative excretion into bile” value [3] was 410 ± 55.4 nmol. The “Conclusion (dose-exposure relationship)” value [4, 13] was “Nonlinear correlation”, the “Conclusion (dose-exposure relationship)” value [4, 14] was “Nonlinear correlation” and the “Slope (90%CI)” value [4, 15] was 0.342 (0.204–0.479). For the same compound, the “Slope (90%CI)” value [4, 16] was 0.536 (0.422–0.649), the logP ([5]; no source given) was 0.10 and the AUC(0-t) [6, 17] was 18.2 µM·h. The AUC(0-t) [6, 18] was 6.42 µM·h, the AUC(0-t) [6, 19] was 45.5 µM·h and the AUC(0-t) [6, 20] was 71.7 µM·h. It also gave an AUC(0-t) [6, 21] of 86.4 µM·h, an AUC(0-t) ([6]; both, kidney, AUC0-t in the kidney, RPM extract 18 g/kg p.o., rat kidney, sampling 5, 15, 60 min) of 86.4 µM·h and an AUC(0-t) [6, 22] of 114 µM·h. It also gave an AUC(0-t) [6, 23] of 35.1 µM·h, an AUC(0-t) [6, 24] of 68.7 µM·h and an AUC(0-t) [6, 25] of 47.9 µM·h. It also gave an AUC(0-t) [6, 26] of 7.59 µM·h, an AUC(0-t) [6, 27] of 12.2 µM·h and an AUC(0-t) [6, 28] of 7.77 µM·h. For the same compound, the “time at which C max was exhibited” value ([7]; rat plasma) was ≤ 20 min, the AUC(0-inf) ([7]; 6 g/kg) was 2.46 µM·h and the AUC(0-t) ([7]; 6 g/kg) was 2.38 µM·h. For the same compound, the Cmax ([7]; 6 g/kg) was 1670 nM, the MRT inf ([7]; 6 g/kg) was 3.86 ± 1.17 h and the Tmax ([7]; 6 g/kg) was 0.24 ± 0.15 h. For the same compound, the half-life ([7]; 6 g/kg) was 6.53 ± 2.45 h, the AUC(0-inf) ([7]; 18 g/kg) was 4.2 µM·h and the AUC(0-t) ([7]; 18 g/kg) was 4.04 µM·h. For the same compound, the Cmax ([7]; 18 g/kg) was 3260 nM, the MRT inf ([7]; 18 g/kg) was 4.37 ± 0.91 h and the half-life ([7]; 18 g/kg) was 6.54 ± 2.02 h.

For `COc1cc(O)c2c(c1)C(=O)c1cc(C)cc(O)c1C2=O` [Physcion, physcion], the Peff ([8]; colon) is listed as “(7.45 ± 3.30) × 10^–3 cm/min”, the Peff ([8]; duodenum) is listed as “(3.32 ± 1.50) × 10^–3 cm/min” and the Peff ([8]; ileum) is listed as “(2.40 ± 0.58) × 10^–3 cm/min”. The Peff ([8]; jejunum) was “(2.30 ± 1.57) × 10^–3 cm/min” and the plasma concentrations ([7]; RPM extract 6, 18 and 36 g/kg p.o., rat plasma) was “too low to be detected”.

In the case of `Cc1cc(O)c2c(c1)C(=O)c1cc(O)cc(O)c1C2=O` [Emodin, emodin], the “AUC0-∞” value [1] is listed as 2,970 ± 863 nmol·h/L, the AUC(0-t) [1] is listed as 2,540 ± 694 nmol·h/L and the Cmax [1] is listed as 648 ± 125 nM. For the same compound, the dose excreted [2, 9] was 23.6%, the dose excreted [2, 10] was 32.5% and the dose excreted [2, 11] was 8.82%. For the same compound, the “cumulative excretion into feces” value [2, 12] was 50.3 ± 6.18 nmol, the “cumulative excretion into urine” value [2, 12] was 19.0 ± 3.81 nmol and the “cumulative excretion into bile” value [3] was 70.7 ± 20.4 nmol. For the same compound, the “Conclusion (dose-exposure relationship)” value [4, 13] was “Nonlinear correlation”, the “Conclusion (dose-exposure relationship)” value [4, 14] was “Nonlinear correlation” and the “Slope (90%CI)” value [4, 15] was 0.466 (0.290–0.642). For the same compound, the “Slope (90%CI)” value [4, 16] was 0.656 (0.554–0.758), the logP ([5]; ref Liu et al., 2010) was 5.03 and the AUC(0-t) ([6]; both, bladder) was 0.988 µM·h. For the same compound, the AUC(0-t) ([6]; both, brain) was 0.244 µM·h, the AUC(0-t) ([6]; both, heart) was 1.64 µM·h and the AUC(0-t) ([6]; both, intestine) was 5.57 µM·h. The AUC(0-t) ([6]; both, kidney) was 2.83 µM·h, the AUC(0-t) ([6]; both, liver) was 6.36 µM·h and the AUC(0-t) ([6]; both, lung) was 7.11 µM·h. It also gave an AUC(0-t) ([6]; both, spleen) of 19.1 µM·h, an AUC(0-t) ([6]; both, stomach) of 1.72 µM·h and an AUC(0-t) ([6]; female, ovary) of 0.57 µM·h. It also gave an AUC(0-t) ([6]; female, uterus) of 0.773 µM·h, an AUC(0-t) ([6]; male, testis) of 0.116 µM·h and an AUC0-t in spleen ([6]; rat tissue: spleen, 18 g/kg RPM extract p.o., tissues collected at 5, 15, 60 min) of 19.1 µM·h. The “time at which C max was exhibited” value ([7]; rat plasma) was ≤ 20 min, the AUC(0-inf) ([7]; 6 g/kg) was 1.35 µM·h and the AUC(0-t) ([7]; 6 g/kg) was 1.04 µM·h. It also gave a Cmax ([7]; 6 g/kg) of 205 ± 39.4 nM, an MRT inf ([7]; 6 g/kg) of 12.7 ± 4.65 h and a Tmax ([7]; 6 g/kg) of 0.12 ± 0.07 h. It also gave a half-life ([7]; 6 g/kg) of 7.72 ± 3.67 h, an AUC(0-inf) ([7]; 18 g/kg) of 2.91 µM·h and an AUC(0-t) ([7]; 18 g/kg) of 2.48 µM·h. For the same compound, the Cmax ([7]; 18 g/kg) was 491 ± 35.8 nM, the MRT inf ([7]; 18 g/kg) was 13 ± 4.18 h and the Tmax ([7]; 18 g/kg) was 0.14 ± 0.09 h. The half-life ([7]; 18 g/kg) was 9.44 ± 3.63 h.

In the case of `COc1cc(O[C@@H]2O[C@H](CO)[C@@H](O)[C@H](O)[C@H]2O)c2c(c1)C(=O)c1cc(C)cc(O)c1C2=O` [PG, physcion-8-O-β-D-glucoside], the “AUC0-∞” value [1] is given as 188 ± 18.6 nmol·h/L, the AUC(0-t) [1] is given as 178 ± 20.1 nmol·h/L and the Cmax [1] is given as 42.1 ± 10.9 nM. For the same compound, the “MRT0-∞” value [1] was 8.58 ± 1.72 h, the “t 1/2” value [1] was 6.13 ± 1.06 h and the dose excreted [2, 9] was 11.6%. The dose excreted ([2]; urine and feces, recovery from the urine and feces, single p.o. RPM extract 18 g/kg, rats) was 16.4%, the dose excreted [2, 11] was 4.83% and the “cumulative excretion into feces” value [2, 12] was 13.6 ± 1.12 nmol. For the same compound, the “cumulative excretion into urine” value [2, 12] was 5.53 ± 2.08 nmol, the “cumulative excretion into bile” value [3] was 18.2 ± 3.29 nmol and the “Conclusion (dose-exposure relationship)” value [4, 13] was “Nonlinear correlation”. The “Conclusion (dose-exposure relationship)” value [4, 14] was “Nonlinear correlation”, the “Slope (90%CI)” value [4, 15] was 0.429 (0.326–0.532) and the “Slope (90%CI)” value [4, 16] was 0.524 (0.396–0.652). The AUC(0-t) [6, 17] was 0.205 µM·h, the AUC(0-t) [6, 18] was 0.125 µM·h and the AUC(0-t) [6, 19] was 1.64 µM·h. The AUC(0-t) [6, 20] was 0.692 µM·h, the AUC(0-t) [6, 21] was 3.21 µM·h and the AUC(0-t) [6, 22] was 3.38 µM·h. The AUC(0-t) [6, 23] was 0.842 µM·h, the AUC(0-t) [6, 24] was 2.69 µM·h and the AUC(0-t) [6, 25] was 1.29 µM·h. The AUC(0-t) [6, 26] was 0.614 µM·h, the AUC(0-t) [6, 27] was 0.735 µM·h and the AUC(0-t) [6, 28] was 0.0806 µM·h. The “time at which C max was exhibited” value ([7]; rat plasma) was ≤ 20 min, the AUC(0-inf) ([7]; 6 g/kg) was 0.0919 ± 0.0145 µM·h and the AUC(0-t) ([7]; 6 g/kg) was 0.0777 ± 0.00612 µM·h. For the same compound, the Cmax ([7]; 6 g/kg) was 16.8 ± 4.1 nM, the MRT inf ([7]; 6 g/kg) was 7.55 ± 1.48 h and the Tmax ([7]; 6 g/kg) was 0.29 ± 0.1 h. It also gave a half-life ([7]; 6 g/kg) of 4.83 ± 0.99 h, an AUC(0-inf) ([7]; 18 g/kg) of 0.192 ± 0.0126 µM·h and an AUC(0-t) ([7]; 18 g/kg) of 0.176 ± 0.0168 µM·h. The Cmax ([7]; 18 g/kg) was 34.2 ± 4.59 nM, the MRT inf ([7]; 18 g/kg) was 9.64 ± 2.05 h and the Tmax ([7]; 18 g/kg) was 0.26 ± 0.13 h. The half-life ([7]; 18 g/kg) was 7.09 ± 2.12 h.
